Measured values published in patent US20220226337A1 (Gilead Sciences, Inc., priority 2018, published 2022).

What follows are molecules tested against T1, α4β7 integrin interaction with MadCAM-1 (RPMI8866 cells) (Homo sapiens, UniProt P13612+P26010) (assay: α4β7 Integrin Cell Capture Assay). Conditions: capture of α4β7 integrin expressing RPMI8866 cells on recombinant MadCAM-1 extracellular domain-coated plate; 0.5 mM MnCl2.
T1 construct: α4β7 integrin expressing cells; endogenous in cells; host or cells: RPMI8866 cells
T1 sequence (P13612 34-1032): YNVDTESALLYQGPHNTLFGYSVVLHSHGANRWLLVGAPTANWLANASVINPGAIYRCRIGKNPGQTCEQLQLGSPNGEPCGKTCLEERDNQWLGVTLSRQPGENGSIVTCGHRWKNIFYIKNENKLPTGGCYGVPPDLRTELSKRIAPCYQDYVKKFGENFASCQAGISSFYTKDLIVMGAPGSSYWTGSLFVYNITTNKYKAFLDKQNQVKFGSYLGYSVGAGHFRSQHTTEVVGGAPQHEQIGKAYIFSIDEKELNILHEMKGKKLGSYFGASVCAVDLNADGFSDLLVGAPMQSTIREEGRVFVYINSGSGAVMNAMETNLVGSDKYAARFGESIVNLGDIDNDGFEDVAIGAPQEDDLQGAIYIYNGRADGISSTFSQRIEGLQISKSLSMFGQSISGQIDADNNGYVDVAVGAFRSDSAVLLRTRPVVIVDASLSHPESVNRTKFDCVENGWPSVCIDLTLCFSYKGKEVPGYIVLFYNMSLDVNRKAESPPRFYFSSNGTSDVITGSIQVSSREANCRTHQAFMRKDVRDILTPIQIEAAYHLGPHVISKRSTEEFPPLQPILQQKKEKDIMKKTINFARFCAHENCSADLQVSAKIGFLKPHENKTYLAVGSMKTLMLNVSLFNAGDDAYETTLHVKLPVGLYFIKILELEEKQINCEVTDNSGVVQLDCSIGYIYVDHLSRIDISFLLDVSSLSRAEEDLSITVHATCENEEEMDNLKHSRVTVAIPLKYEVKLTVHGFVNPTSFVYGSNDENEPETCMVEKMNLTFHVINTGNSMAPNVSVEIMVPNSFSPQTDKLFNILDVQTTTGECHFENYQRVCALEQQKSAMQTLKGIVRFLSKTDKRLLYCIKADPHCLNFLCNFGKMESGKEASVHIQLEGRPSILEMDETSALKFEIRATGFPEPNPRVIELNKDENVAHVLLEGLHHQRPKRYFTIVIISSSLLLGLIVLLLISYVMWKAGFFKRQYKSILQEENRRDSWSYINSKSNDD
T1 sequence (P26010 20-798): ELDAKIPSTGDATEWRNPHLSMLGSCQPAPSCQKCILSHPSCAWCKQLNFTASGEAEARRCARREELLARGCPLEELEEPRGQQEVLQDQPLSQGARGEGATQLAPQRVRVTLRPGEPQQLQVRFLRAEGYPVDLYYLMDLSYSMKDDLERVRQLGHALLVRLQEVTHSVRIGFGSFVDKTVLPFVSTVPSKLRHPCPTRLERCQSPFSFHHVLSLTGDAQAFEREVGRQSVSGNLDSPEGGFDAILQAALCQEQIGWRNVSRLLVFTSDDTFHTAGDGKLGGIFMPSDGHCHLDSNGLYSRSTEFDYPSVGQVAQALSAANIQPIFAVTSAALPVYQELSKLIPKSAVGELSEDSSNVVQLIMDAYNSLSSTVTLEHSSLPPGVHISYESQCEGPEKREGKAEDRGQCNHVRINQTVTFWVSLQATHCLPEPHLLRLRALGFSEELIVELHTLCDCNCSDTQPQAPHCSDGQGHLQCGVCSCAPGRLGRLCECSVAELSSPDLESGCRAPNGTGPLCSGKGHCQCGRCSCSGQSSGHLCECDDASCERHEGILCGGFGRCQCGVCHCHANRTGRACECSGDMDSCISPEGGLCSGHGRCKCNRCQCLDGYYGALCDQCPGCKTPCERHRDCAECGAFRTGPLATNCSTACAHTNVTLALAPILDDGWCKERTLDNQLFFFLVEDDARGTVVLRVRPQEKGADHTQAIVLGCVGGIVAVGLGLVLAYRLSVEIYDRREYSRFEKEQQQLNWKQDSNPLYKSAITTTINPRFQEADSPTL
Type: cell-based
Outline: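 RPMI8866 cells (0.5×10^6 cells/mL in DMEM + 0.5% FBS + 0.5 mM MnCl2) preincubated with compound 1 h at 37 °C, then allowed to adhere 30 min at 37 °C to plates coated with MAdCAM-1 extracellular domain (1.0 μg/mL). Bound cells fixed with 2% glutaraldehyde, Hoechst-stained, imaged and counted; EC50 from cell count versus concentration.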

Row | EC50 [nM] | SMILES
1 | 79.7 | O=C(N[C@@H](Cc1ccc(-c2c(Cl)cc(F)cc2Cl)c2c1CCCO2)C(=O)O)c1c(F)cccc1F [Example 74, (S)-3-(8-(2,6-dichloro-4-fluorophenyl)chroman-5-yl)-2-(2,6-difluorobenzamido)propanoic acid]
2 | 16 | O=C(N[C@@H](Cc1ccc(-c2cc(F)c(F)c3c2OCCC3)c2c1CCCO2)C(=O)O)c1c(Cl)cccc1Cl [Example 90, (S)-2-(2,6-dichlorobenzamido)-3-(5′,6′-difluoro-[8,8′-bichroman]-5-yl)propanoic acid]
3 | 2.29 | Cc1c(-c2ccc(C[C@H](NC(=O)c3c(Cl)cccc3Cl)C(=O)O)c3c2OCCC3)c(=O)n(C)c2ccccc12 (single isomer, unassigned) [Example 61]
4 | 491 | COc1cc(C#Cc2ccc(OC(F)(F)F)cc2)cc(OC)c1-c1ccc(C[C@H](NC(=O)c2c(Cl)cccc2Cl)C(=O)O)c2c1OCCC2 [Example 93, (S)-2-(2,6-dichlorobenzamido)-3-(8-(2,6-dimethoxy-4-((4-(trifluoromethoxy)phenyl)ethynyl)phenyl)chroman-5-yl)propanoic acid]
5 | 0.889 | Cc1cc(C(F)(F)F)c(-c2ccc(C[C@H](NC(=O)c3c(F)cc(N4CCOC[C@@H]4C(F)(F)F)cc3F)C(=O)O)c3c2OCCC3)c(=O)n1C (single isomer, unassigned) [Example 40]
6 | 0.242 | Cc1cc(N2CCOC[C@@H]2C(F)(F)F)cc(F)c1C(=O)N[C@@H](Cc1ccc(-c2cc3cnccc3n(C)c2=O)c2c1COC2)C(=O)O [Example 189]
7 | 0.144 | Cc1cc(N2CCOC[C@@H]2C(F)(F)F)cc(F)c1C(=O)N[C@@H](Cc1ccc(-c2c(C)c(C)c(C)n(C)c2=O)c2c1CCCO2)C(=O)O [Example 151]
8 | 0.374 | Cc1cc(N2CCOC[C@@H]2C(F)(F)F)cc(F)c1C(=O)N[C@@H](Cc1ccc(-c2c(C)ncn(C)c2=O)c2c1CCCO2)C(=O)O [Example 134]
9 | 120 | O=C(N[C@@H](Cc1ccc(-c2c(Cl)cc(F)cc2Cl)c2c1[C@H]1C[C@H]1CO2)C(=O)O)c1c(F)cccc1F (single isomer, unassigned) [Example 78]
10 | 31.1 | O=C(N[C@@H](Cc1ccc(-c2c(Cl)cc(F)cc2Cl)c2c1COC2)C(=O)O)c1c(F)cccc1F [Example 16, (S)-3-(7-(2,6-dichloro-4-fluorophenyl)-1,3-dihydroisobenzofuran-4-yl)-2-(2,6-difluorobenzamido)propanoic acid]
11 | 0.227 | Cc1cc(N2CCOC[C@@H]2C(F)(F)F)cc(F)c1C(=O)N[C@@H](Cc1ccc(-c2c(C(F)(F)F)cc(C)n(C)c2=O)c2c1COC2)C(=O)O [Example 188]
12 | 0.84 | Cc1nc(-c2ccc(C[C@H](NC(=O)c3c(F)cc(N4CCCC[C@@H]4C(F)(F)F)cc3F)C(=O)O)c3c2OCCC3)c(=O)n(C)c1C [Example 156]
13 | 94.9 | Cc1nc(-c2ccc(C[C@@H](C(=O)O)N(C)C(=O)c3c(F)cc(N4CCOC[C@@H]4C(F)(F)F)cc3F)c3c2OCCC3)c(=O)n(C)c1C [Example 125]
14 | 0.758 | Cc1nc(-c2ccc(C[C@H](NC(=O)c3c(F)cc(N4CCOC[C@@H]4C(F)(F)F)c(F)c3F)C(=O)O)c3c2OCCC3)c(=O)n(C)c1C [Example 121]
15 | 8.47 | C[C@@H](Nc1cc(F)c(C(=O)N[C@@H](Cc2ccc(-c3ncccc3C(F)(F)F)c3c2CCCO3)C(=O)O)c(F)c1)C(F)(F)F [Example 89, (S)-2-(2,6-difluoro-4-(((R)-1,1,1-trifluoropropan-2-yl)amino)benzamido)-3-(8-(3-(trifluoromethyl)pyridin-2-yl)chroman-5-yl)propanoic acid]
